Patent US10954258B2, “STAT3 dimerization inhibitors” (H. LEE MOFFITT CANCER CENTER AND RESEARCH INSTITUTE, INC., priority 2012, dated 2021)

Key:
Type in all cases: cell-based, human
[1] = system: P-STAT3, P-Erk, P-Akt, Bcl-xL, Survivin, MMP9 and Cyclin D1 in MDA-MB-468 cells; experiment: western immunoblotting of P-STAT3, P-Akt, P-Erk and STAT3 target genes; conditions: 18 hours
Method: MDA-MB-468 cells were treated with vehicle (DMSO), S3I-1757 at 50 μM, 100 μM and 200 μM, and S3I-1756 at 200 μM for 18 hours. Cells were then lysed with RIPA buffer (20 mM Tris-HCl (pH 7.4), 5 mM EDTA, 10 mM Na4P2O7, 100 mM NaF, 2 mM Na3VO4, 1% NP-40.1 mM PMSF and 10 mg/ml aprotinin). The cell lysates were denatured by boiling with 5×SDS-PAGE sample buffer for 5 minutes and run on SDS-PAGE gel. The proteins were then transferred to membranes that were blocked with 5% non-fat milk in Tris Buffer Saline with 0.1% Tween-20 (TBST) buffer for 30 minutes at room temperature, and incubated with primary antibodies (pY705STAT3, pAKT, AKT, pERK1/2, MMP9, and CyclinDi) 4° C. overnight at dilution of 1:1000 in 3% BSA, followed by washing and incubation with secondary antibody at dilution of 1:1000 in 5% non-milk Tris Buffer Saline with 0.1% Tween-20 (TBST) buffer for 1 hours at room temperature. The membranes were then washed with 1×PBS buffer for 10 minutes for 3 times and developed with ECL kit (PerkinElmer, Waltham, Mass., USA).
To this end, MDA-MB-468 cells were treated with vehicle, S3I-1756 or increasing concentration of S3I-1757 and processed for western blotting.

[2] = system: STAT3-responsive promoter-firefly luciferase reporter (pLucTKS3); experiment: luciferase reporter assay, STAT3-responsive promoter
Method: MDA-MB-468 cells were plated into 12-well plate with 4×10^5 cells per well. The cells were transiently transfected with pLucSRE, pLucTKS3 or STAT3-C with β-gal and then were treated with vehicle, S3I-1756 or S3I-1757 for 48 hours. Then cytosolic extracts of equal total protein were prepared from S3I-1757-treated or -untreated and analyzed for luciferase activity using a TD-20/20 luminometer (Turner Designs, Sunnyvale, Calif., USA) described by us previously.
To this end, MDA-MB-468 cells were transiently co-transfected with a STAT3-responsive promoter-firefly luciferase reporter (pLucTKS3) and 3-gal reporter used to normalize the transfection efficacy. To determine the selectivity of S3I-1757 to suppress STAT3-dependent over STAT3-independent transcriptional activation, MDA-MB-468 cells were also co-transfected with SRE promoter-renilla luciferase reporter (pLucSRE) and β-gal reporter. […] STAT3-C spontaneously dimerizes via disulfide bonds in the absence of tyrosine phosphorylation and is therefore not predicted to be inhibited by a small molecule that is designed to mimic phosphotyrosine binding.

[3] = system: P-STAT3 in the nucleus of MDA-MB-468 cells; experiment: P-STAT3 nuclear accumulation by immunofluorescence
[4] = system: MDA-MB-231 and A-549 cells; experiment: wound healing (migration) assay, cells with persistently activated STAT3
Method: A549, MDA-MB-231 and H460 cells were seeded at 6×10^5 cells per dish into 60 mm plate and allowed to grow overnight. Wounds were made the following day by scratching the cells with pipette tips (1-10 μL). Cells were treated with vehicle, S3I-1756 or S3I-1757 and allowed to migrate into the scratched area for 16 hours in regular growth medium. The migration of cells was visualized at 10× magnification using a Leica Microscope at time 0 (right before the drug was added) and 16 hours after vehicle, S3I-1756, or S3I-1757 treatments.
The cancer cells were cultured with serum-starved medium for 8 hours before scratching the cells with a pipette tip and treating with increasing concentrations of S3I-1757 for 24 hours. […] Finally, the ability of S3I-1757 to inhibit selectively invasion was determined.

[5] = target: binding of FLAG-STAT3 to HA-STAT3 (Mus musculus, UniProt P42227); experiment: co-immunoprecipitation of FLAG-STAT3 with HA-STAT3 in HEK293 cells; conditions: HEK293 cells co-expressing FLAG- and HA-STAT3; treated 4 h
Method: HEK-293/FLAG-STAT3/HA-STAT3 cells were treated for 4 h with vehicle, S3I-1757, S3I-1756, Ac-G{pTYR}LPQTV-[…]-NH2 (SEQ ID NO:3) or Ac-GYLPQTV-[…]-NH2 (SEQ ID NO:4) and then lysed in 20 mM Tris-HCl (pH 7.4), 5 mM EDTA, 10 mM Na4P2O7, 100 mM NaF, 2 mM Na3VO4, 1% NP-40.1 mM PMSF and 10 mg/ml aprotinin. For EGF stimulation group, HEK-293/FLAG-STAT3/HASTAT3 cells were treated by 100 ng/ml EGF for 30 minutes before making cell lysate. Protein A or G agarose (EMD Millipore, Billerica, Mass., USA) was washed twice with PBS and restore to 50% slurry with PBS. 500 μg of lysate were pre-cleared by mixture of protein A and protein G-agarose for 1 h at 4° C. and then remove protein A and G-agarose by centrifuge at 1300 rpm for 3 minutes. And then 500 μg of lysate was immunoprecipitated with 50 ng of HA antibody overnight at 4° C. on shaker and then capture the immunocomplex by adding 100 μl Protein A and G agarose/sepharose bead slurry for 1 hour at 4° C. Samples were washed five times with lysis buffer and then boiled in 5×SDS-PAGE sample buffer and run on SDS-PAGE gel. Protein was transferred to nitrocellulose membrane and then blotted as described above for HA, FLAG, pSTAT3, EGFR, and STAT3.
However, the FP assay only measured the ability of S3I-1757 to displace the 7 amino acid fluorescein-labelled GpYLPQTV phosphotyrosine peptide from the SH2 domain of STAT3 protein in vitro. Therefore, it was determined if the intracellular reciprocal binding of 2 full-length STAT3 proteins is inhibited. To this end, an assay was developed to measure directly STAT3-STAT3 dimerization in intact cells by cloning HA-tagged STAT3 and FLAG-tagged STAT3, generating HEK293 cells that stably co-express HA-STAT3 and FLAG-STAT3 and using these cells for coimmunoprecipitation and co-localization. […] This assay was validated by treating the FLAG-STAT3/HA-STAT3 HEK293 cells with tyrosine phosphorylated or nonphosphorylated GYLPQTV peptide fused to a membrane-translocating sequence (MTS) to allow cell uptake. […]

Sequence of binding of FLAG-STAT3 to HA-STAT3 (P42227 whole entry): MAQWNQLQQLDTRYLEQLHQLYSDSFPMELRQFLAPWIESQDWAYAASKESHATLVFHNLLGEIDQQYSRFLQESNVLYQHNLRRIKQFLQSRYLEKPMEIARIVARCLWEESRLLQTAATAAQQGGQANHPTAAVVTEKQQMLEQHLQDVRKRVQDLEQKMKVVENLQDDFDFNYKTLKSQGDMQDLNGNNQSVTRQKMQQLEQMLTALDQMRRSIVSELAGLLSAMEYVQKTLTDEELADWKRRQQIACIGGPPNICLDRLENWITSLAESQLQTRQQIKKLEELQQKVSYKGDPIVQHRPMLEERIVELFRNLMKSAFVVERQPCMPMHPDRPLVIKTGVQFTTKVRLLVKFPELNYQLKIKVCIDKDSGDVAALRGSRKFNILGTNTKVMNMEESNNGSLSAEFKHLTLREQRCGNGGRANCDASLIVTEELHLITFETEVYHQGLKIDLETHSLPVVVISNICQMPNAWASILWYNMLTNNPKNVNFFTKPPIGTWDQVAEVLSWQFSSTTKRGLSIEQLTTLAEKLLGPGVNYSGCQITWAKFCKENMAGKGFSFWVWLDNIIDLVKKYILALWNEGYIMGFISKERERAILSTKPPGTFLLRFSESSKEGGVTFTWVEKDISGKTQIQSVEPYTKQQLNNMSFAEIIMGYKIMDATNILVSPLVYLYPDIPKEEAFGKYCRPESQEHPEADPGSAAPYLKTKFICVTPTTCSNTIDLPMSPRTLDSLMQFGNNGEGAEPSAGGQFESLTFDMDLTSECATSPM

STAT3-dependent luciferase activity (pLucTKS3) ([2]; MDA-MB-468, 48 hours): less luciferase activity
SMILES: O=C(O)c1cc(N(Cc2ccc(C3CCCCC3)cc2)C(=O)c2ccc(Oc3ccccc3)cc2)ccc1O [Compound 20g, 5-(N-(4-Cyclohexylbenzyl)-4-phenoxybenzamido)-2-hydroxybenzoic acid]
expression of STAT3 target genes Bcl-xL, survivin, cyclin D1, MMP9 [1]: inhibited the expression of STAT3 target genes
phosphorylation of STAT3-Y705 (western blotting) [1]: inhibited the phosphorylation of STAT3-Y705 in a concentration dependent manner starting at 50 μM
selectivity of inhibition over Akt and Erk1/2 phosphorylation [1]: selective for STAT3 over Akt and Erk1/2 phosphorylation
STAT3-dependent transcriptional activity in cells transfected with STAT3-C ([2]; MDA-MB-468 transfected with STAT3-C): rescued from the S3I-1757 inhibition
levels of p-STAT3 in the nucleus ([3]; 2 hours and 4 hours): dramatically decreased
P-STAT3 nuclear accumulation ([3]; 18 hours, various concentrations): inhibited P-STAT3 nuclear accumulation in a concentration-dependent manner starting at 50 μM
migration (wound healing), MDA-MB-231 and A-549 [4]: prevented this migration
binding of FLAG-STAT3 to HA-STAT3 (co-immunoprecipitation) [5]: inhibited the binding of FLAG-STAT3 to HA-STAT3 in a concentration-dependent manner
